Assays:
[1] = biological target: T1, Tyrosine-protein phosphatase non-receptor type 1 (Homo sapiens, UniProt P18031); assay: PTP1B Inhibitory Assay; details: pH 6
T1 sequence (P18031 whole entry): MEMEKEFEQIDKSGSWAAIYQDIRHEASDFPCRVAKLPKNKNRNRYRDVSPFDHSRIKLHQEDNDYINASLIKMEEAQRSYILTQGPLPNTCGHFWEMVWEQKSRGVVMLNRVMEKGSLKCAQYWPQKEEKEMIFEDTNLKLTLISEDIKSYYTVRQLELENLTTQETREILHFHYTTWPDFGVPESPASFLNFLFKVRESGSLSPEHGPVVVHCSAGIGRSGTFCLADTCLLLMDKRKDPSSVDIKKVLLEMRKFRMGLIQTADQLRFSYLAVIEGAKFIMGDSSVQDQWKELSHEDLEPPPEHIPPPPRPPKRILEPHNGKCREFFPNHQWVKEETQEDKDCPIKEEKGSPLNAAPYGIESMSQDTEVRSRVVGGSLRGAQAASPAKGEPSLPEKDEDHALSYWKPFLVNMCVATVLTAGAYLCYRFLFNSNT
Procedure: PTP1B activity was measured by adding 2mM p-NPP and PTP1B in a 50 mM citrate buffer (pH 6.0, 0.1 M NaCl, 1 mMEDTA, and 1 mM dithiothreitol), with or without tested compounds. The plate was pre-incubated at 37 °C for 10 min, and then 50 μL of p-NPP in buffer was added. After incubating at 37 °C for 30 min, the reaction was then terminated with 1 N NaOH.

Acetylcholinesterase = Acetylcholinesterase (Homo sapiens, UniProt P22303); assay: Acetylcholinesterase Inhibitory Assay; details: pH 8; 25 °C
Procedure: Briefly, 140 μL of sodium phosphate buffer (pH 8.0), 20 μL of each tested compound with different concentrations (4, 20, and 100 μM) and 20 μL enzyme solution were mixed and incubated at room temperature for 15 min. The reactions were initiated by the addition of 10 μL of 0.01 M 5,5'-dithiobis(2-nitrobenzoic acid) (DTNB) and 10 μL of 0.075 ATCI. […] The reaction was independently experimented for three times and recorded in 96-well microplates using a microplate reader (VersaMax).

[2] = biological target: T1, Tyrosine-protein phosphatase non-receptor type 1; assay: Kinetic Analysis
Procedure: The reaction mixtures contained in various different concentrations of p-NPP as a PTP1B substrate in the presence or absence of the active compound. The kinetic analysis was evaluated for Michaelis-Menten plot, Lineweaver-Burk plot, and Dixon plot. The Michaelis constant (Km), maximum velocity (Vmax), and the inhibition constants (Ki) were determined by using Sigma Plot software (13.0 software, SPCC Inc., Chicago, IL, USA).

Sequence of Acetylcholinesterase (P22303 whole entry): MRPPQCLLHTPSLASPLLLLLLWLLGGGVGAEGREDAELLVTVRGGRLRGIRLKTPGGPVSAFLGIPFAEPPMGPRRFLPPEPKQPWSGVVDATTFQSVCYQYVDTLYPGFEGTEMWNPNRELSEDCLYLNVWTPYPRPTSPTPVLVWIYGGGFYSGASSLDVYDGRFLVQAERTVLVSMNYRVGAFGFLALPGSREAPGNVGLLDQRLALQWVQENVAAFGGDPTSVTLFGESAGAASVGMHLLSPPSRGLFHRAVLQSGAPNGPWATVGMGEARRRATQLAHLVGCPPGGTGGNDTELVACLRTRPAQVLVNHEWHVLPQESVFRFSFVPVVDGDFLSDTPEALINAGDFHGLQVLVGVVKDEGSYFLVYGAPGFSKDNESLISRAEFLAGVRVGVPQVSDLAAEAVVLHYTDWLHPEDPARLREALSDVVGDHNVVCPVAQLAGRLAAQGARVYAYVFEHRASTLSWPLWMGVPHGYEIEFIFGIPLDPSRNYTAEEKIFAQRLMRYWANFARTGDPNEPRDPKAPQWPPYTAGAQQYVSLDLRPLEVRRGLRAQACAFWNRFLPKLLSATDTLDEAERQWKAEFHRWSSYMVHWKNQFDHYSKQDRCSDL

| Structure (SMILES) | IC50 [1] [µM] | IC50 (Acetylcholinesterase) [µM] | Ki [2] [µM] |
| --- | --- | --- | --- |
| O=c1c(O)c(-c2ccc(O)c(O[C@@H]3O[C@H](CO)[C@@H](O)[C@H](O)[C@H]3O)c2)oc2cc(O)cc(O)c12 [Quercetin 3'-O-β-D-glucoside (12)] | 100 | 89.2 |  |
| O=C(O)[C@H]1O[C@@H](Oc2cc(O)c3c(=O)cc(-c4ccc(O)cc4)oc3c2)[C@H](O)[C@@H](O)[C@@H]1O [apigenin-7-O-betaD-glucuronic acid] | 7.14 | 63 | 2.6 |
| O=C(O[C@H]1OC(CO)[C@@H](O)[C@@H]2OC(=O)c3cc(O)c(O)c(c3O)-c3c(O)c(O)cc(c3O)C(=O)OC12)c1cc(O)c(O)c(O)c1 (some centres not stated) [Agritannin (1)] | 17 | 60.2 |  |
| COc1cc(C2Oc3c(OC)cc(CCCO)cc3C2CO)ccc1O[C@@H]1OC(CO)[C@@H](O)C(O)[C@@H]1O (stereo partly drawn) [dihydrodehydrodiconifeyl alcohol 9'-O-β-D-glucose (19)] | 100 | 92.8 |  |
| COC(=O)[C@H]1O[C@@H](Oc2cc(O)c3c(=O)cc(-c4ccc(O)cc4)oc3c2)C(O[C@@H]2OC(CO)[C@@H](O)C(O)[C@@H]2O)[C@H]1O (some centres not stated) [Agriflavone (2)] | 100 | 63.4 |  |
| O=c1c(O)c(-c2ccc(O)c(O)c2)oc2cc(O)cc(O)c12 [2-(3,4-dihydroxyphenyl)-3,5,7-trihydroxy-chromone;hydrate] |  | 72.8 |  |
| O=c1cc(-c2ccc(O)cc2)oc2cc(O[C@@H]3O[C@H](CO)[C@@H](O)[C@H](O)[C@H]3O)cc(O)c12 [NSC-407303] | 100 | 100 |  |
| O=C(OCCCCOc1cc(O)c2c(=O)cc(-c3ccc(O)c(O)c3)oc2c1)[C@H]1O[C@@H](O)[C@H](O)[C@@H](O)[C@@H]1O [Luteolin 7-O-β-D-glucuronide butyl ester (16)] | 100 | 76.9 |  |
| O=c1cc(-c2ccc(O)c(O[C@@H]3O[C@H](CO)[C@@H](O)[C@H](O)[C@H]3O)c2)oc2cc(O)cc(O)c12 [Luteolin 3'-O-β-D-glucoside (17)] | 100 | 74.6 |  |
| O=C(OCOc1cc(O)c2c(=O)cc(-c3ccc(O)c(O)c3)oc2c1)[C@H]1O[C@@H](O)[C@H](O)[C@@H](O)[C@@H]1O [Luteolin 7-O-β-D-glucuronide methyl ester (15)] | 49.1 | 65.9 |  |
| O=c1cc(-c2ccc(O)cc2)oc2cc(O)cc(O)c12 [Naringenin, 18] | 100 | 64.3 |  |
| O=C(O)[C@H]1O[C@@H](Oc2cc(O)c3c(=O)c(O)c(-c4ccc(O)cc4)oc3c2)[C@H](O)[C@@H](O)[C@@H]1O [Kaempferol 7-O-β-D-glucuronide (5)] | 48.3 | 64 |  |
| O=c1c(O[C@@H]2O[C@H](CO)[C@@H](O)[C@H](O)[C@H]2O)c(-c2ccc(O)c(O)c2)oc2cc(O)cc(O)c12 [2-(3,4-dihydroxyphenyl)-5,7-dihydroxy-3-[(2S,3R,4S,5S,6R)-3,4,5-trihydroxy-6-(hydroxymethyl)oxan-2-yl]oxychromen-4-one] | 100 | 84.8 |  |
| O=c1c(O)c(-c2ccc(O)cc2)oc2cc(O[C@@H]3O[C@H](CO)[C@@H](O)[C@H](O)[C@H]3O)cc(O)c12 [Kaempferol 7-O-β-D-glucoside (4)] | 100 | 63.9 |  |
| O=c1cc(-c2ccc(O)c(O)c2)oc2cc(O[C@@H]3O[C@H](CO)[C@@H](O)[C@H](O)[C@H]3O)cc(O)c12 | 71.6 | 74.7 |  |
| O=c1c(O[C@@H]2O[C@H](CO)[C@@H](O)[C@H](O)[C@H]2O)c(-c2ccc(O)cc2)oc2cc(O)cc(O)c12 [Kaempferol 3-O-β-D-glucoside (6)] | 60.7 | 89.6 |  |
| O=c1oc2c(O)c(O)cc3c(=O)oc4c(O)c(O)cc1c4c23 [Elagic Acid] | 7.73 | 100 | 2.8 |
| O=C(O)[C@H]1O[C@@H](Oc2cc(O)c3c(=O)cc(-c4ccc(O)c(O)c4)oc3c2)[C@H](O)[C@@H](O)[C@@H]1O [Luteolin 7-O-β-D-glucuronide (14)] | 38.1 | 88.1 |  |

— BindingDB's records for doi:10.7270/Q2Q52NH6 (Catholic University of Daegu, 2017)
